Source: patent US20240010992A1, “COMPOSITIONS AND METHODS TO IMPROVE IPSC-EC FUNCTION” (Northwestem University, priority 2022, published 2024)
Entries after “also recorded” stand apart in the source; their conditions may differ. Like-named read-outs stand apart in the source and are kept apart here.

How the values were obtained:
CD144 and CD31 = assay: Immunostaining for CD144 and CD31 and morphology of iPSC-ECs; format: cell-based, human; settings: ACS1028 and Y6 iPSC-ECs
Protocol: Immunostaining was performed by fixing cells in 4% paraformaldehyde for 15 minutes at room temperature and then washing with PBS. Cells were then permeabilized with 70% ice cold ethanol on ice and blocked with 0.5% BSA in PBS for 15 minutes at room temperature. Cells were then incubated overnight at 4° C. with the primary antibody in antibody dilution buffer (0.05% BSA in PBS) at the following concentrations: Nanog (Life Technologies PA1-097, 1:100), SSEA4 (Life Technologies 414000, 1:400), Sox2 (Life Technologies PA1-16968, 1:100), VE-cadherin/CD144 (Sigma V1514, 1:200), PECAM1/CD31 (Abcam ab187377, 1:100). The isotype control antibodies used in this study were mouse IgG1 (Abcam ab172730) and rabbit serum. Cells were washed with PBS and incubated with conjugated secondary antibodies at room temperature in the dark (Life Technologies, 1:300).

ACS1028-derived ECs = assay: Mitophagy inducing drug experiment, cell number by total Hoechst signal; settings: all concentrations, by passage 1
Protocol: (§4) The effect of increasing mitophagy in iPSC-ECs was evaluated.

Y6-derived ECs = assay: as above; settings: all concentrations, by passage 1
Protocol: as §4

[1] = tested on: endothelial nitric oxide synthase; assay: Western blotting, phosphorylation of endothelial nitric oxide synthase in iPSC-ECs; format: cell-based; settings: human iPSC-derived endothelial cells
Text: (§1) Milk solution was removed, and membranes rinsed in TBST. […] ECL was applied for chemiluminescence. Imaging was done using Bio-Rad imager.

ACS1028-ECs [2] = assay: Cell proliferation assay (EdU labeling) of iPSC-ECs over serial passages; format: cell-based, human
Protocol: Proliferating cells were labeled with EdU using the Invitrogen Click-iT microplate assay kit (Invitrogen C10214), without the use of the Amplex Ultra red step. Cells were labeled for 24 hours with 10 μM EdU or DMSO as a vehicle control. Cells were fixed and prepared according to the manufacturer's instructions, minus the Amplex Ultra red labeling. Hoechst 33342 was added at 5 μg/mL (Invitrogen H1399), and labeled cells were imaged on a Zeiss inverted fluorescence microscope. Four tiled images at 10× magnification were collected per each well of 3 biological replicates per condition and stitched together as a single image per well for analysis. EdU-labeled and total nuclei were counted in Fiji.
(§2) Experiments were conducted to determine whether inducing autophagy in iPSC-ECs overcomes the premature senescence phenomenon. […] Due to the loss of proliferating cells in the control culture, the experiment was terminated at passage 3.

Parkin = assay: Western blotting, Parkin expression in iPSC-ECs; format: cell-based, human; settings: particularly under bafilomycin treated conditions
Text: as §1

SIRT1 = assay: Western blotting, SIRT1 expression in iPSC-ECs; format: cell-based; settings: human iPSC-derived endothelial cells
Text: as §1

PKM2 = assay: Western blotting, phosphorylation of PKM2 in iPSC-ECs; format: cell-based, human; settings: particularly under bafilomycin treated conditions
Text: as §1

Opal = assay: Western blotting, Opal expression in iPSC-ECs; format: cell-based; settings: human iPSC-derived endothelial cells
Text: as §1

Drp1 = assay: Western blotting, phosphorylation of Drp1 in iPSC-ECs; format: cell-based; settings: human iPSC-derived endothelial cells
Text: as §1

PDH = assay: Western blotting, PDH expression in iPSC-ECs; format: cell-based, human; settings: particularly under bafilomycin treated conditions
Text: as §1

ACS1028-ECs [3] = assay: Cell survival of purified iPSC-ECs by light microscopy cell counting / Trypan blue; format: cell-based; settings: for cell survival: serial passaging
Protocol: There were three biological replicates for each group in each experiment, unless otherwise specified. For MitoTracker quantification, total fluorescence signal for the area was measured in Fiji and divided by the number of nuclei present. This was done for 5 fields of view (technical replicates) and averaged to generate a data point for a given biological replicate. For the DAF-FM reduction measurements for NO production, a given experimental condition was plated into 3 wells of a 96 well plate. For TEM analysis, each biological sample was imaged in a minimum of 5 locations. Three representative images from each condition were utilized for quantifying autolysosomes per high power field (HPF) in each of two separate experiments. For light microscopy images, cells were manually counted from three distinct areas of a given experimental condition on two separate occasions. All data wereanalyzed with one-way ANOVA with a post-hoc Tukey test in IBM SPSS Statistics for Macintosh, version 27 (IBM Corp., Armonk, N.Y., USA). A p value of <0.05 was considered significant, where * represent comparisons between the specified groups.
as §2
(§3) To assess whether the effect of Rg2 on proliferation is mediated through autophagy, ACS1028-ECs was administered with 200 μM Rg2 and SBI-0206965 to block ULK1 kinase at varying concentrations. Cell survival was assessed by counting the number of cells per high power field by light microscopy, which diminished over serial passages in the DMSO-treated vehicle-control condition.

LC3-II = assay: Western blotting of LC3-II (normalized to GAPDH) in ACS1028-EC lysate; format: cell-based, human; settings: ACS1028-ECs
Protocol: Western blotting was performed using a modified Novus Biological protocol (NB100-2220) with 10%, 12%, 14% or 4-20% gradient SDS-PAGE gels. Cells were collected and lysed with RIPA buffer plus PMSF protease inhibitor. Cell lysate was centrifuged at high speed for 10 minutes at 4° C., and the supernatant was transferred to a fresh tube. The total protein content was quantified with a Bradford assay, and a total of 20 ug of protein was mixed with Laemmli buffer (4% SDS, 5% 2-mercaptoethanol (BME), 20% glycerol, 0.004% bromophenol blue, 0.125 M Tris HCl, pH 6.8) and denatured for 10 minutes at 95° C. This was followed by wet transfer to PVDF immobilon membrane (Millipore IPFL00010) and blocked with Odyssey TBS blocking buffer (LiCor 927-50000). […] Bands were quantified and normalized by a ratio of LC3-II:GAPDH, rather than LC3-II:LC3-I as LC3-II is more sensitive in blotting and accurate observed alone.
as §3

Protocol for cleaved caspase 3: Utilizing 8%, 10%, and 14% polyacrylamide gels, samples were run at 150V for 1 to 2 hours in SDS-Tris-Glycine buffer. Gels were then transferred to nitrocellulose membrane for two and half hours at 0.35 Amps in Tris-Glycine transfer buffer. After transfer nitrocellulose membranes were blocked in 10% milk/TBST solution for 1 hr. Milk solution was removed, and membranes rinsed in TBST. Blocked membranes were cut and placed in primary antibody solution (5% BSA/TBST) overnight. After incubation with primary antibody incubation membranes were washed with TBST for 5 mins 3X. Secondary antibody incubation (Rabbit 1:1000) in 5% BSA solution was applied for 2 hrs. After secondary antibody incubation membranes were washed with TBST for 15 mins 3X. ECL was applied for chemiluminescence. Imaging was done using Bio-Rad imager.

## Antimycin A
CD144 and CD31
  CD144 and CD31 expression and typical morphology (mature endothelial cell phenotype): accelerated the loss of CD144 and CD31 as well as typical morphology
ACS1028-derived ECs
  cell loss / cell survival (total Hoechst signal): high levels of cell loss; also recorded: decreased cell survival
Y6-derived ECs
  cell survival (total Hoechst signal): decreased cell survival

## CC(C)=CCC[C@](C)(O)[C@H]1CC[C@]2(C)[C@@H]1[C@H](O)C[C@@H]1[C@@]3(C)CC[C@H](O)C(C)(C)[C@@H]3[C@@H](O[C@@H]3O[C@H](CO)[C@@H](O)[C@H](O)[C@H]3O[C@@H]3O[C@@H](C)[C@H](O)[C@@H](O)[C@H]3O)C[C@]12C [Rg2]
[1]
  phosphorylation (activity) of endothelial nitric oxide synthase: increased phosphorylation
ACS1028-ECs [2]; serial passages, experiment terminated at passage 3
  persistence of the proliferation benefit over serial passages: persisted through passage 3; also recorded: sustained through passage 3
ACS1028-ECs [2]; versus DMSO vehicle control and rapamycin, ML246, Antimycin A or oligomycin
  proliferation (EdU labeled cells): increased rate of proliferation; also recorded: statistically significant improvement in proliferation
Parkin
  Parkin (mitophagy marker) expression: increased Parkin expression; also recorded: slightly increases
SIRT1
  SIRT1 expression: increased expression of longevity protein SIRT1 in a dose-dependent manner
PKM2
  phosphorylation of PKM2: increased phosphorylation of PKM2
Opal
  expression of Opal (mitochondrial fusion): increased
Cleaved caspase 3
  apoptosis (cleaved caspase 3): no increase in cleaved caspase 3
Drp1
  phosphorylation of Drp1 (mitochondrial fission): increased phosphorylation of Drp1
PDH
  expression of PDH: increased
ACS1028-ECs [3]; purified ACS1028-ECs
  cell survival: improved cell survival
LC3-II; passage 3, Rg2 treated vs DMSO
  LC3-II level by Western blotting: increase in LC3-II level

## CC[C@H]1/C=C/C=C/C[C@@H](C)[C@H](O)[C@@](C)(O)C(=O)[C@@H](C)[C@H](O)[C@@H](C)C(=O)[C@@H](C)[C@H](O)[C@@H](C)/C=C/C(=O)O[C@@H]2[C@H](C)[C@H](CC1)O[C@]1(CC[C@H](C)[C@H](C[C@@H](C)O)O1)[C@H]2C [oligomycin]
CD144 and CD31
  CD144 and CD31 expression and typical morphology (mature endothelial cell phenotype): accelerated the loss of CD144 and CD31 as well as typical morphology
ACS1028-derived ECs
  cell loss / cell survival (total Hoechst signal): high levels of cell loss; also recorded: decreased cell survival
Y6-derived ECs
  cell survival (total Hoechst signal): decreased cell survival

## Oc1ccc(C=Cc2cc(O)cc(O)c2)cc1 [resveratrol]
ACS1028-ECs [3]
  presence of cells by light microscopy: no cells visible
  residual cells, Trypan blue: no residual cells
ACS1028-ECs [3]; purified ACS1028-ECs
  cell survival: no cells surviving to passage 1

## NCCCCNCCCN [spermidine]
ACS1028-ECs [3]; purified ACS1028-ECs incubated overnight with Trypan blue
  residual cells, Trypan blue: no residual cells
ACS1028-ECs [3]; purified ACS1028-ECs, versus control and DMSO-vehicle control
  presence of cells by light microscopy: no cells visible

## N=c1c2c(-c3ccccc3)c(-c3ccccc3)n(Cc3ccccc3)c2ncn1[C@H]1CC[C@H](O)CC1 [ML246]
ACS1028-ECs [3]
  presence of cells by light microscopy: no cells visible
  residual cells, Trypan blue: no residual cells

## CNC(=O)c1ccccc1Oc1nc(Nc2cc(OC)c(OC)c(OC)c2)ncc1Br [SBI-0206965]
ACS1028-ECs [3]
  presence of cells by light microscopy: no cells visible
  residual cells, Trypan blue: no residual cells
ACS1028-ECs [3]; 10 μM (highest concentration) in the presence of 200 μM Rg2, passages 2 and 3
  cell survival (cells per high power field), co-treatment with Rg2: almost no surviving cells
ACS1028-ECs [3]; purified ACS1028-ECs
  cell survival: no cells surviving to passage 1
ACS1028-ECs [3]; varying concentrations of SBI-0206965 in the presence of 200 μM Rg2, survival to passage 3
  cell survival (cells per high power field), co-treatment with Rg2: fewer cells surviving when treated with higher concentrations; also recorded: statistically significant reduction in cell survival in a dose-dependent manner
LC3-II; passage 3, SBI-0206965 at any concentration added to Rg2
  LC3-II level by Western blotting, co-treatment with Rg2: reduced

## N#CC(C#N)=NNc1ccc(OC(F)(F)F)cc1 [FCCP]
CD144 and CD31
  CD144 and CD31 expression and typical morphology (mature endothelial cell phenotype): accelerated loss of mature endothelial cell phenotype
ACS1028-derived ECs
  cell loss / cell survival (total Hoechst signal): high levels of cell loss
